Assay [1] has as its system E. coli. Nature of the assay: Deep learning video microscopy-based antimicrobial susceptibility testing (DLVM-AST). To be noted: for MIC: Escherichia coli. In kind it is cell-based, Escherichia coli (ATCC 43888).
Assay [2] has as its system E. coli. Nature of the assay: AST without DL (division feature only, cell counting from the videos). To be noted: for MIC: Escherichia coli. In kind it is cell-based, Escherichia coli (ATCC 43888). The method, then: To further validate the DLVM-AST method, we counted the total number of bacteria cells (Ntotal) from the videos (as shown in FIG. 9), and plotted Ntotal (mean±std) vs. time for PMB at various concentrations (as shown in FIG. 11C).
Growth and preparation of E. coli. Frozen E. coli strains were thawed, and 50 μL of which were cultured in 5 mL of Luria-Bertani (LB) medium (Per liter: 10 g peptone 140, 5 g yeast extract, and 5 g sodium chloride) at 37° C. and 150 rpm for 16 hours. Saturated cultures in the volume of 20 μL were diluted into 5 mL of fresh LB medium, and growth continued at 37° C. with 150 rpm for 1 hour to attain a logarithmic phase of growth. Bacterial cells were collected by centrifugation at 450 g for 5 min and suspended in urine to a concentration of 2×10^7 cells/mL^36. This concentration was determined by measuring the extinction coefficients for E. coli from the Optical Density (OD600) reading taken with a spectrophototometer (NanoDrop™ 2000/2000c Spectrophotometers, Thermo Scientific). The calibration factor for bacterial cell cultures estimation was 8×10^8 cells/mL per OD600 unit. Before use, the bacteria-spiked urine samples were filtered using a 5 μm syringe filter (EMD Millipore) to remove large particles.
AST with video microscopy. The microfluidic chip was placed on an inverted microscope (Olympus IX-81) with a 40× phase contrast objective lens and imaged with a CCD camera (Pike-032B, Allied Vision Technologies, Newburyport, Mass.). A 200-μL bacterial suspension (2×10^7 cells/mL) was mixed with an equal volume of antibiotic solution for each antibiotic concentration or an equal volume of water as a control experiment. These mixed solutions were injected into different microfluidic channels simultaneously. After the microfluidic channels were fulfilled with these mixed solutions, two microfluidic valves of each detection channel were closed simultaneously to generate a stable microenvironment. Videos of the bacterial cells were recorded at 100 frames per second (fps) immediately (0 min) and after every 30 min. Each video lasted for 30 seconds. The raw images were batch-converted to 16-bit tiff format using a Matlab program and pre-processed to minimize background artifacts before being processed with the DL model. To include enough cells for reliable results, we integrated bacterial cells from three videos recorded from different experiments. Each experiment was repeated independently for three times.

Assay [3] has as its system E. coli. Kind of assay: microbe, parasite or virus in culture. It counts as cell-based, Escherichia coli (ATCC 43888). The note with it: broth macrodilution, 37° C., triplicate; for MIC: Escherichia coli. The method, then: AST with broth macrodilution (BMD) method. For comparison, AST was also performed by the BMD method (CLSI gold standard^35). The adjusted inoculum E. coli suspension is diluted in Cation-adjusted Mueller Hinton Broth (CAMHB, Sigma-Aldrich) and the concentration of E. coli cell cultures are adjusted to 1×10^6 cells/mL based on UV-Vis spectrophotometer (NanoDrop 2000, Thermo Fisher) readings at OD600. […] After inoculation, each tube contains approximately 5×10^5 cells/mL. […] This test was performed in triplicate.

In assay [4] the test system is E. coli. Kind of assay: Phenotypic features (motion, morphology) in recorded bacteria videos in presence of antibiotics. To be noted: 3 hours. It counts as cell-based, Escherichia coli. The method, then:
Referring now simultaneously to FIG. 8A-FIG. 8C, phenotypic features in the recorded bacteria videos in the presence and absence of antibiotics are shown. […] Concentrations of PMB and aztreonam are 8 μg/mL and 0.5 μg/mL, respectively.
In principle, the raw bacterial videos could be used as inputs for a DL model, but the computational expense is impractical. In fact, few DL applications could use videos as input data directly even with high performance super-computers.^30-32 To overcome this difficulty, a method to compress the raw videos into static images without losing key phenotypic features was developed as described further below. This approach imitates human vision, which pre-processes raw images in the vision system to reduce complexity before passing them to the brain. The key phenotypic features in the video include cell division, motion, and morphology. […] Cell motion and morphology may also change when exposing the cell to antibiotics, thus serving as additional phenotypic features for AST. […]
AST with video microscopy. […] Videos of the bacterial cells were recorded at 100 frames per second (fps) immediately (0 min) and after every 30 min. […] To include enough cells for reliable results, we integrated bacterial cells from three videos recorded from different experiments. […]

In assay [5] the test system is E. coli O157 model strain. Kind of assay: Susceptibility test with 40× optical microscope and imaging-processing algorithm tracking motion and growth. In kind it is cell-based. To be noted: @30 mins; concentrated bacterial samples. An excerpt:
The inventors here have tested the susceptibility of E. coli O157 model strain to polymysin B (PMB, an antibiotic) using a 40× optical microscope. The individual bacterial cells 12 were identified, and their motions and growth were tracked using an imaging-processing algorithm. Inhibition curves were derived from the tracking data as shown below with respect to FIG. 4B and FIG. 4C. […] However, the experiment used concentrated bacterial samples, because the microscope has a small viewing size.

The mark [6] stands for this setting: E. coli spiked in urine, triplicate.
Setting [7] is: division feature only, triplicate.

Converted amounts (≈) assume the structure as drawn.

As for `CC1(C)S[C@@H]2[C@H](NC(=O)[C@H](N)c3ccccc3)C(=O)N2[C@H]1C(=O)O` [Ampicillin, ampicillin], the MIC against E. coli [1] (setting [6]), against E. coli [2] (setting [7]) and in the assay on E. coli [3] was 2 µg/mL (≈ 5.72 µM) in each case.
For the molecule `C[C@H]1[C@H](NC(=O)/C(=N\OC(C)(C)C(=O)O)c2csc(N)n2)C(=O)N1S(=O)(=O)O` [Aztreonam, aztreonam], the MIC in the assay on E. coli [1] (setting [6]), in the assay with E. coli [2] (setting [7]) and against E. coli [3] was 0.12 µg/mL (≈ 0.276 µM) throughout. The “effect on bacterial morphology” value in the assay with E. coli [4] (aztreonam 0.5 μg/mL) is listed as “caused the bacterial cells to elongate”.
`O=C(O)c1cn(C2CC2)c2cc(N3CCNCC3)c(F)cc2c1=O` [Ciprofloxacin, ciprofloxacin] returned an MIC against E. coli [2] (setting [7]) of 0.015 to 0.03 µg/mL (≈ 0.0453 to 0.0905 µM).
Turning to `[H]/N=C(/N)N[C@H]1[C@H](O)[C@@H](O)[C@H](O[C@@H]2O[C@@H](C)[C@](O)(C=O)[C@H]2O[C@@H]2O[C@@H](CO)[C@H](O)[C@@H](O)[C@@H]2NC)[C@@H](N/C(N)=N\[H])[C@@H]1O` [Streptomycin, streptomycin], the MIC against E. coli [1] (setting [6]), in the assay with E. coli [2] (setting [7]) and against E. coli [3] was 4 µg/mL (≈ 6.88 µM) each time.
As for polymyxin B, in the assay on E. coli [1] (setting [6]), the “MIC, DLVM-AST” value stood at 2 µg/mL. Besides, in the assay with E. coli [1] (obtained 30 minutes after antibiotic treatment), the “MIC (concentration at which 90% of the bacterial cells are inhibited)” value was found to be 2 µg/mL. In addition, the “MIC from Ntotal vs. antibiotic concentration” value in the assay on E. coli [2] (at 180 minutes, cell counting) was around 2 µg/mL. Besides, the “MIC, AST Without DL” value in the assay on E. coli [2] (setting [7]) lay within 1 to 2 µg/mL. Moreover, in the assay on E. coli [3], the “MIC, BMD” value was 2 µg/mL. In addition, the MIC in assay [5] amounted to 2 µg/mL. The “effect on bacterial motion” value with E. coli [4] (PMB 8 μg/mL) is “decreased bacterial motion”.

The values are drawn from patent publication US11834696B2, “Antimicrobial susceptibility testing with large-volume light scattering imaging and deep learning video microscopy” (Arizona Board of Regents on behalf of Arizona State …, priority 2017, dated 2023).
